Data reported in publication PMC5563081, “Modulating Protein-Protein Interactions of the Mitotic Polo-like Kinases to Target Mutant KRAS” (Cell Chemical Biology, 2017).

Key:
Assay in all cases: DiscoverX KINOMEscan
Format in all cases: binding
Settings in all cases: read-out: % Control
AAK1 = target: T1, AAK1 (Homo sapiens, UniProt Q2M2I8)
T1 construct: purchased DiscoverX KINOMEscan
Method: (§1) A panel of 55 proteins (comprising 51 human kinases structurally or functionally related to the PLKs, plus the kinase catalytic domains of PLK1, PLK2, PLK3 and PLK4) were selected for testing by DiscoverX using the KINOMEscan assay platform. Compounds were supplied as 40x DMSO stocks and were tested at a final concentration of 50μM for Poloppin and 5μM for Poloppin-II. Binding interactions were reported as percentage of control where lower numbers indicate stronger binding. A cut-off of <35% was applied to report significant binding.

AURKA = target: T2, AURKA (Homo sapiens, UniProt O14965)
T2 construct: purchased DiscoverX KINOMEscan
Method: as §1

AURKB = target: T3, AURKB (Homo sapiens, UniProt Q96GD4)
T3 construct: purchased DiscoverX KINOMEscan
Method: as §1

AURKC = target: T4, AURKC (Homo sapiens, UniProt Q9UQB9)
T4 construct: purchased DiscoverX KINOMEscan
Method: as §1

BMP2K = target: T5, BMP2K (Homo sapiens, UniProt Q9NSY1)
T5 construct: purchased DiscoverX KINOMEscan
Method: as §1

BUB1 = target: T6, BUB1 (Homo sapiens, UniProt O43683)
T6 construct: purchased DiscoverX KINOMEscan
Method: as §1

CAMKK1 = target: T7, CAMKK1 (Homo sapiens, UniProt Q8N5S9)
T7 construct: purchased DiscoverX KINOMEscan
Method: as §1

CDK2 = target: T8, CDK2 (Homo sapiens, UniProt P24941)
T8 construct: purchased DiscoverX KINOMEscan
Method: as §1

CHUK = target: T9, CHUK (Homo sapiens, UniProt O15111)
T9 construct: purchased DiscoverX KINOMEscan
Method: as §1

CSNK2A1 = target: T10, CSNK2A1 (Homo sapiens, UniProt P68400)
T10 construct: purchased DiscoverX KINOMEscan
Method: as §1

CSNK2A2 = target: T11, CSNK2A2 (Homo sapiens, UniProt P19784)
T11 construct: purchased DiscoverX KINOMEscan
Method: as §1

DSTYK = target: T12, DSTYK (Homo sapiens, UniProt Q6XUX3)
T12 construct: purchased DiscoverX KINOMEscan
Method: as §1

EIF2AK1 = target: T13, EIF2AK1 (Homo sapiens, UniProt Q9BQI3)
T13 construct: purchased DiscoverX KINOMEscan
Method: as §1

GAK = target: T14, GAK (Homo sapiens, UniProt O14976)
T14 construct: purchased DiscoverX KINOMEscan
Method: as §1

IKBKE = target: T15, IKBKE (Homo sapiens, UniProt Q14164)
T15 construct: purchased DiscoverX KINOMEscan
Method: as §1

NEK1 = target: T16, NEK1 (Homo sapiens, UniProt Q96PY6)
T16 construct: purchased DiscoverX KINOMEscan
Method: as §1

NEK11 = target: T17, NEK11 (Homo sapiens, UniProt Q8NG66)
T17 construct: purchased DiscoverX KINOMEscan
Method: as §1

NEK4 = target: T18, NEK4 (Homo sapiens, UniProt P51957)
T18 construct: purchased DiscoverX KINOMEscan
Method: as §1

NEK6 = target: T19, NEK6 (Homo sapiens, UniProt Q9HC98)
T19 construct: purchased DiscoverX KINOMEscan
Method: as §1

NEK7 = target: T20, NEK7 (Homo sapiens, UniProt Q8TDX7)
T20 construct: purchased DiscoverX KINOMEscan
Method: as §1

NEK9 = target: T21, NEK9 (Homo sapiens, UniProt Q8TD19)
T21 construct: purchased DiscoverX KINOMEscan
Method: as §1

PKMYT1 = target: T22, PKMYT1 (Homo sapiens, UniProt Q99640)
T22 construct: purchased DiscoverX KINOMEscan
Method: as §1

[1] = target: T23, PLK1 kinase catalytic domain (Homo sapiens, UniProt P53350)
T23 construct: PLK1 kinase catalytic domain; purchased DiscoverX KINOMEscan
Method: as §1

[2] = target: T24, PLK2 kinase catalytic domain (Homo sapiens, UniProt Q9NYY3)
T24 construct: PLK2 kinase catalytic domain; purchased DiscoverX KINOMEscan
Method: as §1

[3] = target: T25, PLK4 kinase catalytic domain (Homo sapiens, UniProt O00444)
T25 construct: PLK4 kinase catalytic domain; purchased DiscoverX KINOMEscan
Method: as §1

ROCK2 = target: T26, ROCK2 (Homo sapiens, UniProt O75116)
T26 construct: purchased DiscoverX KINOMEscan
Method: as §1

SBK1 = target: T27, SBK1 (Homo sapiens, UniProt Q52WX2)
T27 construct: purchased DiscoverX KINOMEscan
Method: as §1

STK16 = target: T28, STK16 (Homo sapiens, UniProt O75716)
T28 construct: purchased DiscoverX KINOMEscan
Method: as §1

STK35 = target: T29, STK35 (Homo sapiens, UniProt Q8TDR2)
T29 construct: purchased DiscoverX KINOMEscan
Method: as §1

STK36 = target: T30, STK36 (Homo sapiens, UniProt Q9NRP7)
T30 construct: purchased DiscoverX KINOMEscan
Method: as §1

SgK110 = target: T31, SgK110 (Homo sapiens, UniProt P0C264)
T31 construct: purchased DiscoverX KINOMEscan
Method: as §1

TBK1 = target: T32, TBK1 (Homo sapiens, UniProt Q9UHD2)
T32 construct: purchased DiscoverX KINOMEscan
Method: as §1

TLK1 = target: T33, TLK1 (Homo sapiens, UniProt Q9UKI8)
T33 construct: purchased DiscoverX KINOMEscan
Method: as §1

TTK = target: T34, TTK (Homo sapiens, UniProt P33981)
T34 construct: purchased DiscoverX KINOMEscan
Method: as §1

ULK2 = target: T35, ULK2 (Homo sapiens, UniProt Q8IYT8)
T35 construct: purchased DiscoverX KINOMEscan
Method: as §1

ULK3 = target: T36, ULK3 (Homo sapiens, UniProt Q6PHR2)
T36 construct: purchased DiscoverX KINOMEscan
Method: as §1

WEE2 = target: T37, WEE2 (Homo sapiens, UniProt P0C1S8)
T37 construct: purchased DiscoverX KINOMEscan
Method: as §1

WNK1 = target: T38, WNK1 (Homo sapiens, UniProt Q9H4A3)
T38 construct: purchased DiscoverX KINOMEscan
Method: as §1

WNK2 = target: T39, WNK2 (Homo sapiens, UniProt Q9Y3S1)
T39 construct: purchased DiscoverX KINOMEscan
Method: as §1

WNK3 = target: T40, WNK3 (Homo sapiens, UniProt Q9BYP7)
T40 construct: purchased DiscoverX KINOMEscan
Method: as §1

WNK4 = target: T41, WNK4 (Homo sapiens, UniProt Q96J92)
T41 construct: purchased DiscoverX KINOMEscan
Method: as §1

T3 sequence (Q96GD4 whole entry): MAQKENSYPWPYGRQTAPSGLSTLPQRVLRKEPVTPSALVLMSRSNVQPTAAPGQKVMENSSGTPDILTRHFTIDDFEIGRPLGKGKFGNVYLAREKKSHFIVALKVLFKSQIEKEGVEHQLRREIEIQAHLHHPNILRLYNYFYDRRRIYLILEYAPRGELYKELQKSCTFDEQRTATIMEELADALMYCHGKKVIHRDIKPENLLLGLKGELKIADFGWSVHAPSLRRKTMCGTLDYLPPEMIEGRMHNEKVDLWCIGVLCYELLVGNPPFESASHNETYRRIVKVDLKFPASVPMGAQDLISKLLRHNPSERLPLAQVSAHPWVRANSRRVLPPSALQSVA
T12 sequence (Q6XUX3 whole entry): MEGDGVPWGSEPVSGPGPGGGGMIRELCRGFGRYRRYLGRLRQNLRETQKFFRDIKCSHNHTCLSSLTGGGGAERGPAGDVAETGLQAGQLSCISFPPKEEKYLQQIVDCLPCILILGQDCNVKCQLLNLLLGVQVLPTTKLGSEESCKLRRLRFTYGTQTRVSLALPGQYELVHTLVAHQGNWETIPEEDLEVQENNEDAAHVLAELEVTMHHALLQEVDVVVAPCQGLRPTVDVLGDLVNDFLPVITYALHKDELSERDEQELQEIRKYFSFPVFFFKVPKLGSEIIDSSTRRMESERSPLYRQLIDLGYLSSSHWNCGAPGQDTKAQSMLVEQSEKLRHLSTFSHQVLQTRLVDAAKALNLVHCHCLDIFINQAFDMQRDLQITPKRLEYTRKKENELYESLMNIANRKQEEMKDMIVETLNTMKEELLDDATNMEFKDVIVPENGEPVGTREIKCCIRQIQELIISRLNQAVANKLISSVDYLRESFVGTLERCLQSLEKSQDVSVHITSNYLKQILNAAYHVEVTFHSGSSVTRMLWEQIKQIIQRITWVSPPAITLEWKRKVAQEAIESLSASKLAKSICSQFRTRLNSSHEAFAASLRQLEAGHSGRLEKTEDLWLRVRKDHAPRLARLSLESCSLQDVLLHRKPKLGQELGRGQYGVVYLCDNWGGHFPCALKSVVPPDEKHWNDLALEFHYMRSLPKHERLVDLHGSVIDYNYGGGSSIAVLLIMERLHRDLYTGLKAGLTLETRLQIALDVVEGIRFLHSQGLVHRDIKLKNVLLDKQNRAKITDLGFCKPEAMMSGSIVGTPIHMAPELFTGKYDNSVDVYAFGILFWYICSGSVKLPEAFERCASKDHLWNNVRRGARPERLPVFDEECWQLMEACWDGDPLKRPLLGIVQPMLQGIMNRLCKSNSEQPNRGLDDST
T33 sequence (Q9UKI8 whole entry): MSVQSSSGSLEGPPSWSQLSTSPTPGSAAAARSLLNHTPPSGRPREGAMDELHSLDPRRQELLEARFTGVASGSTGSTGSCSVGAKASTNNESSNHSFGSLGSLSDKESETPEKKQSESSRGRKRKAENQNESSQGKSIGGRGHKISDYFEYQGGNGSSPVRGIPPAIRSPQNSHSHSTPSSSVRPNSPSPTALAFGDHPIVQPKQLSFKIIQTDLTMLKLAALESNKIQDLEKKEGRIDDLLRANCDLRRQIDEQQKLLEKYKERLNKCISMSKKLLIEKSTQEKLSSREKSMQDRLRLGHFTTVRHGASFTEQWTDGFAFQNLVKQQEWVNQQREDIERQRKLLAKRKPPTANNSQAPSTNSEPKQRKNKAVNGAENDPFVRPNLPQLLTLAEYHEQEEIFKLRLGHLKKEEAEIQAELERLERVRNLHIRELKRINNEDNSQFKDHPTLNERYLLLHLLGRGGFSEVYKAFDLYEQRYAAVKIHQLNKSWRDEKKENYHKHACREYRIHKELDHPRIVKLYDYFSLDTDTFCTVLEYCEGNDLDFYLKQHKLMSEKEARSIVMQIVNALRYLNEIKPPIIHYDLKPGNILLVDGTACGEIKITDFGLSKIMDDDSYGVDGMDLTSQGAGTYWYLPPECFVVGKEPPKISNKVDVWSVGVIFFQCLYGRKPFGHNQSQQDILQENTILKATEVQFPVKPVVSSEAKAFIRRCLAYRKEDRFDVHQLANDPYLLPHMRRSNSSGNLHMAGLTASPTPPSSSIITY
T28 sequence (O75716 whole entry): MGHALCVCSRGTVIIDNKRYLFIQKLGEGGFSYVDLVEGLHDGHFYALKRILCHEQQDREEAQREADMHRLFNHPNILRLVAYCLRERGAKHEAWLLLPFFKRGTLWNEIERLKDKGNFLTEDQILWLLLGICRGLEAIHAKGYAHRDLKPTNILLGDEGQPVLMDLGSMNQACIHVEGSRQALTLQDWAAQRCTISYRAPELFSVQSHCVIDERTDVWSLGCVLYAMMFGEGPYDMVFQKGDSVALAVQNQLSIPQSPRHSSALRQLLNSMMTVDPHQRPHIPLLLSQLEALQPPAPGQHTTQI
T6 sequence (O43683 whole entry): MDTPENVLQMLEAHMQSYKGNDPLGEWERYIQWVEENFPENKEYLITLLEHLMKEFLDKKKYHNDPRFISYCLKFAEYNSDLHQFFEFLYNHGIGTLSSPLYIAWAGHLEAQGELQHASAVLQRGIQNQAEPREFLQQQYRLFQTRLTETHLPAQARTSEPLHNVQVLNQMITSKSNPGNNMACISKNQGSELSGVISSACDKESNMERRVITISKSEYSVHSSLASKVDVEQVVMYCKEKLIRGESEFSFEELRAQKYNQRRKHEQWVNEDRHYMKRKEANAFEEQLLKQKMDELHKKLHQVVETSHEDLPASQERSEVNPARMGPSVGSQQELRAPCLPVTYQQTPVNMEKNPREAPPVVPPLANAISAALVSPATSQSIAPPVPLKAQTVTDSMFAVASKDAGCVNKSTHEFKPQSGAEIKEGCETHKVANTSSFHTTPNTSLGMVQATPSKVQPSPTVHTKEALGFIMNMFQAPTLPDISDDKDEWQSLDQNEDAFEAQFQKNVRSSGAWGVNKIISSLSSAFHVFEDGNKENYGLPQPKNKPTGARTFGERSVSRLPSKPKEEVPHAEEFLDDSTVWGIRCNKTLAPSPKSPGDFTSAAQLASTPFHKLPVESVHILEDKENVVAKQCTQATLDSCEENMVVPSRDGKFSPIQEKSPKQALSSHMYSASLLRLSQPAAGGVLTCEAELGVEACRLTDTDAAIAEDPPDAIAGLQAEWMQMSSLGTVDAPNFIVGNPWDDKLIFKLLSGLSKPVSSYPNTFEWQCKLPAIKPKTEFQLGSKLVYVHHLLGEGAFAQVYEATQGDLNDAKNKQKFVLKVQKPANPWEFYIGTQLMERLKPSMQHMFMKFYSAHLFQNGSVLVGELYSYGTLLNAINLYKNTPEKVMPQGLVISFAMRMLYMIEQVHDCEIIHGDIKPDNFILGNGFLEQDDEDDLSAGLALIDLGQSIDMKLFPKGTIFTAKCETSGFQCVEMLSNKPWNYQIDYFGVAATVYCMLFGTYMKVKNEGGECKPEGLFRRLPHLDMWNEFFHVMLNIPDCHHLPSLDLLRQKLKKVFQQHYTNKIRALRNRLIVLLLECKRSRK
T27 sequence (Q52WX2 whole entry): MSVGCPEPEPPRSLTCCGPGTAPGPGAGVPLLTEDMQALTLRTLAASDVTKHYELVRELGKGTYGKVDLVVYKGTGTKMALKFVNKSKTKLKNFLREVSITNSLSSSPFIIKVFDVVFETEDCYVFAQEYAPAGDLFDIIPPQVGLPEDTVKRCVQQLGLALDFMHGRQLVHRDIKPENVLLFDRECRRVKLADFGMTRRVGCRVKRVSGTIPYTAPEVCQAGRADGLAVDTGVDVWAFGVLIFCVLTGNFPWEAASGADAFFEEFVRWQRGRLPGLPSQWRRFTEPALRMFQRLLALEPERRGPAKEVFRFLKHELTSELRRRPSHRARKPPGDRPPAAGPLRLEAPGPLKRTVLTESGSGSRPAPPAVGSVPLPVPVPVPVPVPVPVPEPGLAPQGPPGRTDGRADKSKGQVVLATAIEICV
T1 sequence (Q2M2I8 whole entry): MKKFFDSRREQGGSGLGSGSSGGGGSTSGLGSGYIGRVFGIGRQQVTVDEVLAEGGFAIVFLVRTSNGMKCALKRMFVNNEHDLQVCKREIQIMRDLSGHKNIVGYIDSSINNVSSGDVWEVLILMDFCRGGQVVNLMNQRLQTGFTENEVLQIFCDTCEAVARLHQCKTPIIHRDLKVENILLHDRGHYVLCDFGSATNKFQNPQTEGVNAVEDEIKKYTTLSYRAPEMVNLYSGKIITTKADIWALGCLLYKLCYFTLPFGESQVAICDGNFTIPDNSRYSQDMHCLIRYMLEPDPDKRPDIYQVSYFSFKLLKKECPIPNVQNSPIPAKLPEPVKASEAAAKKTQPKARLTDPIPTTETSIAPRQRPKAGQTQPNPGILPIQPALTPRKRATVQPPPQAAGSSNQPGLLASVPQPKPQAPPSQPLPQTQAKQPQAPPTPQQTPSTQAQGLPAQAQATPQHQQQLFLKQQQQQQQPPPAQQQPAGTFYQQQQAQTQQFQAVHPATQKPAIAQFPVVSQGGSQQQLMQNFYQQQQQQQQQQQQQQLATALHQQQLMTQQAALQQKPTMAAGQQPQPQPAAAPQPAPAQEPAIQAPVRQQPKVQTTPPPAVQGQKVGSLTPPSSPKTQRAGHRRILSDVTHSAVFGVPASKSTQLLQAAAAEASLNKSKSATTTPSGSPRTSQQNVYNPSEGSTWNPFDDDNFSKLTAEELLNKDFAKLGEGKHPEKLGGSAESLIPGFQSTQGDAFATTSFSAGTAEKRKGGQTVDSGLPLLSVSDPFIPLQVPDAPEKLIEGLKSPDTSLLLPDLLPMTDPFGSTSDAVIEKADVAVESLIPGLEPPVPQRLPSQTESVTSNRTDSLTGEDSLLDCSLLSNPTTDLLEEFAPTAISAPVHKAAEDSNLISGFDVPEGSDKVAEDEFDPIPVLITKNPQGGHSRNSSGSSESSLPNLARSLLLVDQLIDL

Work on CN(C)CCNC(=O)c1ccc(-c2ccc(-c3ccc(Cl)cc3)n2-c2ccccc2C(F)(F)F)cc1 [Poloppin-II] yielded a remaining binding at 5 µM (AAK1; AAK1, Poloppin-II 5µM, hit <35%) of 100%, a remaining binding at 5 µM (AURKA; AURKA, Poloppin-II 5µM, hit <35%) of 83% and a remaining binding at 5 µM (AURKB; AURKB, Poloppin-II 5µM, hit <35%) of 95%. For the same molecule, the remaining binding at 5 µM (AURKC; AURKC, Poloppin-II 5µM, hit <35%) was 85%, the remaining binding at 5 µM (BMP2K; BMP2K, Poloppin-II 5µM, hit <35%) was 85% and the remaining binding at 5 µM (BUB1; BUB1, Poloppin-II 5µM, hit <35%) was 90%. For the same molecule, the remaining binding at 5 µM (CAMKK1; CAMKK1, Poloppin-II 5µM, hit <35%) was 91%, the remaining binding at 5 µM (CDK2; CDK2, Poloppin-II 5µM, hit <35%) was 89% and the remaining binding at 5 µM (CHUK; CHUK, Poloppin-II 5µM, hit <35%) was 100%. The remaining binding at 5 µM (CSNK2A1; CSNK2A1, Poloppin-II 5µM, hit <35%) was 96%, the remaining binding at 5 µM (CSNK2A2; CSNK2A2, Poloppin-II 5µM, hit <35%) was 92% and the remaining binding at 5 µM (DSTYK; DSTYK, Poloppin-II 5µM, hit <35%) was 75%. The remaining binding at 5 µM (EIF2AK1; EIF2AK1, Poloppin-II 5µM, hit <35%) was 98%, the remaining binding at 5 µM (GAK; GAK, Poloppin-II 5µM, hit <35%) was 100% and the remaining binding at 5 µM (IKBKE; IKBKE, Poloppin-II 5µM, hit <35%) was 75%. It also gave a remaining binding at 5 µM (NEK1; NEK1, Poloppin-II 5µM, hit <35%) of 100%, a remaining binding at 5 µM (NEK11; NEK11, Poloppin-II 5µM, hit <35%) of 100% and a remaining binding at 5 µM (NEK4; NEK4, Poloppin-II 5µM, hit <35%) of 100%. For the same molecule, the remaining binding at 5 µM (NEK6; NEK6, Poloppin-II 5µM, hit <35%) was 99%, the remaining binding at 5 µM (NEK7; NEK7, Poloppin-II 5µM, hit <35%) was 79% and the remaining binding at 5 µM (NEK9; NEK9, Poloppin-II 5µM, hit <35%) was 92%. The remaining binding at 5 µM (PKMYT1; PKMYT1, Poloppin-II 5µM, hit <35%) was 100%, the remaining binding at 5 µM ([1]; PLK1, Poloppin-II 5µM, hit <35%) was 100% and the remaining binding at 5 µM ([2]; PLK2, Poloppin-II 5µM, hit <35%) was 85%. The remaining binding at 5 µM ([3]; PLK4, Poloppin-II 5µM, hit <35%) was 90%, the remaining binding at 5 µM (ROCK2; ROCK2, Poloppin-II 5µM, hit <35%) was 100% and the remaining binding at 5 µM (SBK1; SBK1, Poloppin-II 5µM, hit <35%) was 61%. It also gave a remaining binding at 5 µM (STK16; STK16, Poloppin-II 5µM, hit <35%) of 92%, a remaining binding at 5 µM (STK35; STK35, Poloppin-II 5µM, hit <35%) of 71% and a remaining binding at 5 µM (STK36; STK36, Poloppin-II 5µM, hit <35%) of 91%. It also gave a remaining binding at 5 µM (SgK110; SgK110, Poloppin-II 5µM, hit <35%) of 100%, a remaining binding at 5 µM (TBK1; TBK1, Poloppin-II 5µM, hit <35%) of 80% and a remaining binding at 5 µM (TLK1; TLK1, Poloppin-II 5µM, hit <35%) of 99%. The remaining binding at 5 µM (TTK; TTK, Poloppin-II 5µM, hit <35%) was 83%, the remaining binding at 5 µM (ULK2; ULK2, Poloppin-II 5µM, hit <35%) was 100% and the remaining binding at 5 µM (ULK3; ULK3, Poloppin-II 5µM, hit <35%) was 88%. The remaining binding at 5 µM (WEE2; WEE2, Poloppin-II 5µM, hit <35%) was 92%, the remaining binding at 5 µM (WNK1; WNK1, Poloppin-II 5µM, hit <35%) was 97% and the remaining binding at 5 µM (WNK2; WNK2, Poloppin-II 5µM, hit <35%) was 100%. For the same molecule, the remaining binding at 5 µM (WNK3; WNK3, Poloppin-II 5µM, hit <35%) was 100% and the remaining binding at 5 µM (WNK4; WNK4, Poloppin-II 5µM, hit <35%) was 91%.

In the case of O=C(O)CCc1ccc(-c2ccc(Br)cc2)n1-c1ccccc1C(F)(F)F [Poloppin], the remaining binding at 50 µM (AAK1) is reported as 92%, the remaining binding at 50 µM (AURKA) is reported as 81% and the remaining binding at 50 µM (AURKB) is reported as 87%. The remaining binding at 50 µM (AURKC) was 81%, the remaining binding at 50 µM (BMP2K) was 68% and the remaining binding at 50 µM (BUB1) was 99%. It also gave a remaining binding at 50 µM (CAMKK1) of 77%, a remaining binding at 50 µM (CDK2) of 84% and a remaining binding at 50 µM (CHUK) of 100%. It also gave a remaining binding at 50 µM (CSNK2A1) of 87%, a remaining binding at 50 µM (CSNK2A2) of 84% and a remaining binding at 50 µM (DSTYK) of 49%. For the same molecule, the remaining binding at 50 µM (EIF2AK1) was 97%, the remaining binding at 50 µM (GAK) was 100% and the remaining binding at 50 µM (IKBKE) was 55%. It also gave a remaining binding at 50 µM (NEK1) of 57%, a remaining binding at 50 µM (NEK11) of 100% and a remaining binding at 50 µM (NEK4) of 100%. It also gave a remaining binding at 50 µM (NEK6) of 96%, a remaining binding at 50 µM (NEK7) of 68% and a remaining binding at 50 µM (NEK9) of 95%. It also gave a remaining binding at 50 µM (PKMYT1) of 98%, a remaining binding at 50 µM [1] of 100% and a remaining binding at 50 µM [2] of 78%. The remaining binding at 50 µM [3] was 88%, the remaining binding at 50 µM (ROCK2) was 100% and the remaining binding at 50 µM (SBK1) was 61%. The remaining binding at 50 µM (STK16) was 81%, the remaining binding at 50 µM (STK35) was 100% and the remaining binding at 50 µM (STK36) was 91%. It also gave a remaining binding at 50 µM (SgK110) of 94%, a remaining binding at 50 µM (TBK1) of 75% and a remaining binding at 50 µM (TLK1) of 100%. For the same molecule, the remaining binding at 50 µM (TTK) was 85%, the remaining binding at 50 µM (ULK2) was 100% and the remaining binding at 50 µM (ULK3) was 94%. For the same molecule, the remaining binding at 50 µM (WEE2) was 86%, the remaining binding at 50 µM (WNK1) was 100% and the remaining binding at 50 µM (WNK2) was 100%. For the same molecule, the remaining binding at 50 µM (WNK3) was 100% and the remaining binding at 50 µM (WNK4) was 100%.
